Measurements as given in ChEMBL document CHEMBL2390826, “Discovery of potent and efficacious urea-containing nicotinamide phosphoribosyltransferase (NAMPT) inhibitors with reduced CYP2C9 inhibition properties” (Bioorg Med Chem Lett, 2013).
Converted amounts (≈) assume the structure as drawn.

Tests used:
[1] = Hepatic clearance in human liver microsomes at 1 uM after 20 to 60 mins by LC-MS/MS analysis; type: ADME, Microsome
[2] = Aqueous solubility of the compound in PBS buffer at 100 uM after 24 hrs by LC/CLND analysis; type: physicochemical
[3] = Apparent permeability from apical to basolateral side in MDCK cells at 10 uM by LC-MS/MS analysis; type: ADME, cell-based, Canis lupus familiaris; settings: dog
[4] = Hepatic clearance in CD-1 mouse hepatocytes at 1 uM by LC-MS/MS analysis; type: ADME, cell-based, Liver, Hepatocyte
[5] = Hepatic clearance in CD-1 mouse liver microsomes at 1 uM after 20 to 60 mins by LC-MS/MS analysis; type: ADME, Microsome
[6] = Oral bioavailability in BALB/c mouse at 5 mg/kg by LC/MS/MS analysis; type: ADME, organism-based; settings: in vivo
[7] = Cmax in BALB/c mouse at 5 mg/kg, po by LC/MS/MS analysis; type: ADME, organism-based; set-up: dose 5 mg/kg, route oral; settings: in vivo
[8] = Tmax in BALB/c mouse at 5 mg/kg, po by LC/MS/MS analysis; type: ADME, organism-based; set-up: dose 5 mg/kg, route oral; settings: in vivo
[9] = Half life in BALB/c mouse at 1 mg/kg, iv by LC/MS/MS analysis; type: ADME, organism-based; set-up: dose 1 mg/kg, route intravenous; settings: in vivo
[10] = Half life in BALB/c mouse at 5 mg/kg, po by LC/MS/MS analysis; type: ADME, organism-based; set-up: dose 5 mg/kg, route oral; settings: in vivo
[11] = Volume of distribution at steady state in BALB/c mouse at 1 mg/kg, iv by LC/MS/MS analysis; type: ADME, organism-based; set-up: dose 1 mg/kg, route intravenous; settings: in vivo, read-out: Vdss
[12] = Clearance in BALB/c mouse at 1 mg/kg, iv by LC/MS/MS analysis; type: ADME, organism-based; set-up: dose 1 mg/kg, route intravenous; settings: in vivo

SMILES: O=C(NCc1cccnc1)Nc1ccc(S(=O)(=O)N2C[C@@H]3C[C@H]2CO3)cc1
- CLhep predicted at 1 µM [1]: 3 mL/min/kg

SMILES: C[C@@H]1COC[C@@H](C)N1S(=O)(=O)c1ccc(NC(=O)NCc2cccnc2)cc1 (racemic)
- CLhep predicted at 1 µM [1]: 17 mL/min/kg

SMILES: O=C(NCc1cccnc1)Nc1ccc(S(=O)(=O)N2CCC3(CCNCC3)C2)cc1
- CLhep predicted at 1 µM [1]: 2 mL/min/kg

SMILES: O=C(NCc1cccnc1)Nc1ccc(S(=O)(=O)c2ccccc2)cc1
- CLhep predicted at 1 µM [1]: 8 mL/min/kg

SMILES: O=C(NCc1cccnc1)Nc1ccc(S(=O)(=O)N2CCC23COC3)cc1
- CLhep predicted at 1 µM [1]: 8 mL/min/kg

SMILES: O=C(NCc1cccnc1)Nc1ccc(S(=O)(=O)N[C@H]2CCC[C@H](O)C2)cc1
- solubility at 24 h, 100 µM [2]: 136 µM (≈ 55 µg/mL)
- Papp A→B at 10 µM [3]: 0.1 ×10⁻⁶ cm/s
- CLhep predicted at 1 µM [4]: 19 mL/min/kg
- CLhep predicted at 1 µM [5]: 61 mL/min/kg
- CLhep predicted at 1 µM [1]: 4 mL/min/kg

SMILES: O=C(NCc1cccnc1)Nc1ccc(S(=O)(=O)N2CCNC(C(F)(F)F)CC2)cc1 (racemic)
- CLhep predicted at 1 µM [1]: 18 mL/min/kg

SMILES: CC1CNCCN(S(=O)(=O)c2ccc(NC(=O)NCc3cccnc3)cc2)C1 (racemic)
- solubility at 24 h, 100 µM [2]: 107 µM (≈ 43.2 µg/mL)
- Papp A→B at 10 µM [3]: 0.1 ×10⁻⁶ cm/s
- CLhep predicted at 1 µM [4]: 16 mL/min/kg
- CLhep predicted at 1 µM [5]: 48 mL/min/kg
- CLhep predicted at 1 µM [1]: 8 mL/min/kg

SMILES: O=C(NCc1cccnc1)Nc1ccc(S(=O)(=O)N[C@@H]2CCNC[C@H]2F)cc1
- CLhep predicted at 1 µM [1]: 3 mL/min/kg

SMILES: O=C(NCc1cccnc1)Nc1ccc(S(=O)(=O)N2CCC3(CCCN3)CC2)cc1
- CLhep predicted at 1 µM [1]: 7 mL/min/kg

SMILES: O=C(NCc1cccnn1)Nc1ccc(S(=O)(=O)c2ccccc2)cc1
- CLhep predicted at 1 µM [1]: 3 mL/min/kg

SMILES: Nc1ncc(CNC(=O)Nc2ccc(S(=O)(=O)c3ccccc3)cc2)cn1
- CLhep predicted at 1 µM [1]: 3 mL/min/kg

SMILES: CC1CCN(S(=O)(=O)c2ccc(NC(=O)NCc3cccnc3)cc2)CCN1 (racemic)
- CLhep predicted at 1 µM [1]: 5 mL/min/kg

SMILES: O=C(NCc1cccnc1)Nc1ccc(S(=O)(=O)N2CCOCC2)cc1
- CLhep predicted at 1 µM [1]: 6 mL/min/kg

SMILES: N[C@H]1CC[C@H](NS(=O)(=O)c2ccc(NC(=O)NCc3cccnc3)cc2)CC1
- solubility at 24 h, 100 µM [2]: 161 µM (≈ 65 µg/mL)
- Papp A→B at 10 µM [3]: 0.2 ×10⁻⁶ cm/s
- CLhep predicted at 1 µM [4]: 6.3 mL/min/kg
- CLhep predicted at 1 µM [5]: 27 mL/min/kg
- CLhep predicted at 1 µM [1]: 5 mL/min/kg

SMILES: C[C@@H]1CN(S(=O)(=O)c2ccc(NC(=O)NCc3cccnc3)cc2)C[C@H](C)O1
- solubility at 24 h, 100 µM [2]: 112 µM (≈ 45.3 µg/mL)
- Papp A→B at 10 µM [3]: 3.1 ×10⁻⁶ cm/s
- CLhep predicted at 1 µM [4]: 55 mL/min/kg
- CLhep predicted at 1 µM [5]: 81 mL/min/kg
- CLhep predicted at 1 µM [1]: 17 mL/min/kg

SMILES: O=C(NCc1cccnc1)Nc1ccc(S(=O)(=O)N2CC3(COC3)C2)cc1
- CLhep predicted at 1 µM [1]: 7 mL/min/kg

SMILES: O=C(NCc1cncc(F)c1)Nc1ccc(S(=O)(=O)c2ccccc2)cc1
- CLhep predicted at 1 µM [1]: 8 mL/min/kg

SMILES: O=C(NCc1cncnc1)Nc1ccc(S(=O)(=O)c2ccccc2)cc1
- CLhep predicted at 1 µM [1]: 6 mL/min/kg

SMILES: O=C(NCc1ccc(Cl)nc1)Nc1ccc(S(=O)(=O)c2ccccc2)cc1
- CLhep predicted at 1 µM [1]: 6 mL/min/kg

SMILES: O=C(NCc1cccnc1)Nc1ccc(S(=O)(=O)N2CCCNCC2)cc1
- CLhep predicted at 1 µM [1]: 6 mL/min/kg

SMILES: O=C(NCc1cccnc1)Nc1ccc(S(=O)(=O)N2CCC3(CCNC3)CC2)cc1
- solubility at 24 h, 100 µM [2]: 75 µM (≈ 32.2 µg/mL)
- Papp A→B at 10 µM [3]: 0.07 ×10⁻⁶ cm/s
- CLhep predicted at 1 µM [4]: 9.2 mL/min/kg
- CLhep predicted at 1 µM [5]: 44 mL/min/kg
- CLhep predicted at 1 µM [1]: 4 mL/min/kg

SMILES: CCN1CC[C@@H](NS(=O)(=O)c2ccc(NC(=O)NCc3cccnc3)cc2)[C@@H](F)C1
- CLhep predicted at 1 µM [1]: 6 mL/min/kg

SMILES: O=C(NCc1cccnc1)Nc1ccc(S(=O)(=O)N2C3CCC2COC3)cc1
- CLhep predicted at 1 µM [1]: 8 mL/min/kg

SMILES: COc1ccc(CNC(=O)Nc2ccc(S(=O)(=O)c3ccccc3)cc2)cn1
- CLhep predicted at 1 µM [1]: 12 mL/min/kg

SMILES: Nc1ccc(CNC(=O)Nc2ccc(S(=O)(=O)c3ccccc3)cc2)cn1
- bioavailability [6]: 31%
- solubility at 24 h, 100 µM [2]: 109 µM (≈ 41.7 µg/mL)
- Papp A→B at 10 µM [3]: 2.9 ×10⁻⁶ cm/s
- CLhep predicted at 1 µM [4]: 12 mL/min/kg
- CLhep predicted at 1 µM [5]: 42 mL/min/kg
- CLhep predicted at 1 µM [1]: 5 mL/min/kg
- Cmax [7]: 2900 nM
- Tmax [8]: 0.83 h
- half-life [9]: 2.6 h
- half-life [10]: 2.7 h
- Vd [11]: 0.51 L/kg
- clearance [12]: 4.9 mL/min/kg

SMILES: O=C(NCc1cnccn1)Nc1ccc(S(=O)(=O)c2ccccc2)cc1
- CLhep predicted at 1 µM [1]: 5 mL/min/kg

SMILES: O=C(NCc1cccnc1)Nc1ccc(S(=O)(=O)N[C@H]2CC[C@H](O)CC2)cc1
- CLhep predicted at 1 µM [1]: 2 mL/min/kg
